According to patent US5430032A, “Benzopyrido piperidylidene compounds, compositions, methods of manufacture and methods of use” (Schering Corporation, priority 1994, dated 1995):

Experiments:
[1] = tested on: platelet-activating factor (PAF); test: Platelet aggregation assay (PAF-induced aggregation, human platelet-rich plasma); format: cell-based; conditions: PAF-induced aggregation of human platelets, in vitro, read-out: PAF Antagonism (in vitro) IC50
Description: Platelet-activating factor (PAF) causes aggregation of platelets by a receptor-mediated mechanism. Therefore, PAF-induced platelet aggregation provides a simple and convenient assay to screen compounds for PAF antagonism. Human blood (50 mL) was collected from healthy male donors in an anticoagulant solution (5 mL) containing sodium citrate (3.8%) and dextrose (2%). Blood was centrifuged at 110×g for 15 min. and the supernatant platelet-rich plasma (PRP) carefully transferred into a polypropylene tube. Platelet-poor-plasma (PPP) was prepared by centrifuging PRP at 12,000×g for 2 min. (Beckman Microfuge B). PRP was used within 3 hr. of drawing the blood. PAF was dissolved in chloroform:methanol (1:1, v/v) at a concentration of 2 mg/mL and stored at -70° C. An aliquot of this solution was transferred to a polypropylene tube and dried under a flow of nitrogen gas. To the dried sample was added Hepes-saline-BSA (BSA=bovine serum albumen) buffer (25 mM Hepes, pH 7.4, […], 0.7 mM MgCl2 and 0.1% BSA) to obtain a 1 mM solution and sonicated for 5 min. in a bath sonicator. This stock solution was further diluted to appropriate concentrations in Hepes-saline-BSA buffer. Collagen (Sigma) and adenosine diphosphate (ADP) (Sigma) were purchased as solutions. Test compounds were initially dissolved in dimethyl sulfoxide (DMSO) at a concentration of 50 mM and then further diluted in Hepes-saline-BSA buffer to achieve appropriate concentrations.
When an aggregating agent such as PAF is added to PRP, platelets aggregate. An aggregometer quantifies this aggregation by measuring and comparing light (infra-red) transmission through PPP and PRP. Aggregation assays were performed using a dual-channel aggregometer (Model 440, Chrono-Log Corp., Havertown, Pa.). PRP (0.45 mL) in aggregometer cuvettes was continually stirred (37° C.). Solutions (50 μL) of test compounds or vehicle were added to the PRP and, after incubation for 2 min., 10-15 μl aliquots of PAF solution were added to achieve a final concentration of 1-5×10^-8 M. In different experiments the aggregatory response was kept within a set limit by varying the concentration of PAF. Incubations were continued until the increase in light transmission reached a maximum (usually 2 min.). This increase in light transmission reflecting platlet aggregation is transmitted to a computer by the Chrono-Log model 810 AGGRO/LINK interface. The AGGRO/LINK calculates the slope of transmission change, thus providing the rate of aggregation. Values for inhibition were calculated by comparing rates of aggregation obtained in the absence and the presence of the compound. For each experiment, a standard PAF antagonist such as 8-chloro-6,11-dihydro-11-(1-acetyl-4-piperidylidene)-5H-benzo[5,6]cyclohepta[1,2-b]pyridine was used as a positive control.
Compounds that inhibit PAF-induced aggregation were tested against several other aggregating agents including collagen (0.2 mg/mL) and ADP (2 μM). Compounds showing no activity against these latter agents were considered to be specific PAF antagonists.

[2] = tested on: PAF; test: PAF-induced bronchospasm in guinea pigs (in vivo, oral); set-up: species or system guinea pig; conditions: for effect on the PAF response, compared with the histamine response: both responses at similar doses, in words; for Agonist Bronchospasm (in vivo)-Oral, PAF, Inhibition: 2 hours after dose, PAF 0.4 μg/kg i.v.
[3] = tested on: Histamine; test: Histamine-induced bronchospasm in guinea pigs (in vivo, oral); set-up: species or system guinea pig; conditions: for effect on the histamine response, compared with the PAF response: both responses at similar doses, in words; for Agonist Bronchospasm (in vivo)-Oral, Histamine, Inhibition: 2 hours after dose, histamine 10 ug/kg i.v.

IC50 [1] [nM]	Compound	effect on the PAF response, compared with the histamine response [2]	Agonist Bronchospasm (in vivo)-Oral, PAF, Inhibition ([2]; 5 mg/kg) [%]	effect on the histamine response, compared with the PAF response [3]	Agonist Bronchospasm (in vivo)-Oral, Histamine, Inhibition ([3]; 3 mg/kg) [%]	Agonist Bronchospasm (in vivo)-Oral, PAF, Inhibition ([2]; 3 mg/kg) [%]	Agonist Bronchospasm (in vivo)-Oral, PAF, Inhibition ([2]; 1 mg/kg) [%]	Agonist Bronchospasm (in vivo)-Oral, Histamine, Inhibition ([3]; 10 mg/kg) [%]
200	O=C(c1cc[n+]([O-])cc1)N1CCN(C2c3ccc(Cl)cc3OCc3cccnc32)CC1 (stereo not shown) [Compound 4]	–	–	–	5	–	68	–
300	O=C(c1cc[n+]([O-])cc1)N1CCN(C2c3ccc(Cl)cc3SCc3cccnc32)CC1 (stereo not shown) [Compound 5]	–	–	–	–	–	38	9

Continued, compound first:

Compound	IC50 [1] [nM]	effect on the PAF response, compared with the histamine response [2]	Agonist Bronchospasm (in vivo)-Oral, PAF, Inhibition ([2]; 5 mg/kg) [%]	effect on the histamine response, compared with the PAF response [3]	Agonist Bronchospasm (in vivo)-Oral, Histamine, Inhibition ([3]; 3 mg/kg) [%]	Agonist Bronchospasm (in vivo)-Oral, PAF, Inhibition ([2]; 3 mg/kg) [%]	Agonist Bronchospasm (in vivo)-Oral, PAF, Inhibition ([2]; 1 mg/kg) [%]	Agonist Bronchospasm (in vivo)-Oral, Histamine, Inhibition ([3]; 10 mg/kg) [%]
CC(=O)N1CCC(=C2c3ccc(Cl)cc3CCc3cccnc32)CC1 [Compound 1]	600	there is an effect on both responses at similar doses	49	there is an effect on both responses at similar doses	49	–	–	–
O=C(c1cc[n+]([O-])cc1)N1CCC(=C2c3ccc(Cl)cc3CCc3cccnc32)CC1 [Compound 2]	200	there is an effect on both responses at similar doses	–	there is an effect on both responses at similar doses	37	93	–	–
O=C(c1cc[n+]([O-])cc1)N1CCC(=C2c3ccc(Cl)cc3SCc3cccnc32)CC1 [Compound 3]	40	–	–	–	–	–	91	9
